How the values were obtained:
[1] = molecular target: T1, human PP2A A-C heterodimer (Homo sapiens, UniProt P67775); assay type: biochemical
T1 construct: purified PP2A A-C dimer purified from human red blood cells; purchased Upstate 14-111 (lot #28002); host or cells: human red blood cells (native purification)
Method: In initial assays a chemical substrate of phosphatase enzymatic action, para-nitrophennylphosphate (pNPP) was used, which following hydrolysis of the phosphate moiety generates para-nitrophenol, an intensely yellow chromogen which is soluble under alkaline conditions. […] Absorbance of each sample was measured in duplicate at 405 nm with 590 nm as a reference. PP2A activity was calculated using the following equation: activity=(sample vol in liters)×A405/1.78×104M^−1 cm^−1 (extinction coefficient)×0.25 cm×15 minutes×0.05 U enzyme Data is presented as mean relative phosphatase activity ±SEM from at least three independent experiments.
Para-nitrophennylphosphate (PNPP) is a chemical substrate of phosphatase enzymes, which following hydrolysis of the phosphate moiety generates para-nitrophenol, an intensely yellow chromogen, soluble under alkaline conditions. In assays measuring relative phosphatase activity, 0.05 U of purified PP2A was mixed with 5 μl of 40 mM NiCl2 and 5 μl of BSA solution (5 mg/ml) in a microcentrifuge tube. Various treatments were added as indicated, and the volume adjusted to 80 μl with pNPP assay buffer. Samples were pre-incubated at 37° C. for 15 min. pNPP substrate was freshly prepared before each assay by dissolving 1.5 mg/ml pNPP in 50 mM Tris-HCl, pH 7.0. To start the phosphatase reaction, 120 μl of pNPP substrate was added, and samples incubated for a further 15 min at 37° C. Absorbance of each sample was measured in duplicate at 405 nm with 590 nm as a reference. PP2A activity was calculated using the following equation: activity=(Sample volume in liters)×A405/1.78×10^4M^−1cm^−1 (Extinction coefficient)×0.25 cm×15 min×0.05 U enzyme.

[2] = test system: PHF Tau; conditions: Balb/C Nu Nu male mice, single subcutaneous injection 300 μg per 200 μl PBS, 2 and 6 hours
Method: Lysates preparation and Immunoblotting: Cells were washed twice in cold PBS and were lysed in 150 μl of cold RIPA buffer (containing 10% glycerol, 20 mM Tris, 137 mM NaCl, 0.1% SDS, 0.05% IGEPAL, 1% Triton X-100, 2 mM EDTA, 10% NaV, 2% NaF and 4× protease inhibitor), similarly, brain tissues were homogenised in dry ice using mortar and pestle, and lysed in 150 μl RIPA buffer. Samples were incubated on ice for 30 minutes, followed by centrifugation at 13000 rpm/ 10 minutes/ 4° C. Supernantant was collected and protein estimation was calculated for each sample by using BCA reagent (Sigma). Equal amounts of protein were loaded into each lane of a 10% SDS-polyacrylamide gel. The proteins were transferred onto PVDF (Millipore) membranes and were blocked with 5% skim milk blotto for 2 hours. After blocking the membrane, primary antibodies: either anti-human PHF-Tau (AT100 at 1:200, AT180 at 1:1000, and AT270 at 1:2500) or anti-human Tau (HT-7 at 1:1000) were incubated overnight at 4° C. in 5% skim milk blotto. Prior to secondary antibody incubation, membranes were rinsed 3× followed by 3×5 minutes washed in Tris-Buffered Saline with 0.01% Tween at room temperature. […] Membranes were washed as described above and were detected by using Amersham ECL western blotting detection reagent (Amersham Bioscience, Buckinghamshire, UK). […]

[3] = molecular target: T2, PP2A A-C dimer (Homo sapiens, UniProt P67775); assay: Phosphopeptide / malachite green assay with purified PP2A; assay type: biochemical
T2 construct: purified PP2A A-C dimer purified from human red blood cells; purchased Upstate 14-111 (lot #28002); host or cells: human red blood cells (native purification)
T2 sequence (P67775 whole entry): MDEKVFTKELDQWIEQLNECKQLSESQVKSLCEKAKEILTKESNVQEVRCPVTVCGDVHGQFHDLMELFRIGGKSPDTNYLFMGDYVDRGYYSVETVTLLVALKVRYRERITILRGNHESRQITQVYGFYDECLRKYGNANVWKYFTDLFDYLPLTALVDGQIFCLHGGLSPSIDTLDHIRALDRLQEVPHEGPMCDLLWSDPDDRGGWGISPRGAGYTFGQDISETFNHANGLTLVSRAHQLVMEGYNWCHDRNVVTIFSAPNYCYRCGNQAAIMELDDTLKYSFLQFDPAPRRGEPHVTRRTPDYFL
T2 sequence (P30153 2-589 partner limits assumed): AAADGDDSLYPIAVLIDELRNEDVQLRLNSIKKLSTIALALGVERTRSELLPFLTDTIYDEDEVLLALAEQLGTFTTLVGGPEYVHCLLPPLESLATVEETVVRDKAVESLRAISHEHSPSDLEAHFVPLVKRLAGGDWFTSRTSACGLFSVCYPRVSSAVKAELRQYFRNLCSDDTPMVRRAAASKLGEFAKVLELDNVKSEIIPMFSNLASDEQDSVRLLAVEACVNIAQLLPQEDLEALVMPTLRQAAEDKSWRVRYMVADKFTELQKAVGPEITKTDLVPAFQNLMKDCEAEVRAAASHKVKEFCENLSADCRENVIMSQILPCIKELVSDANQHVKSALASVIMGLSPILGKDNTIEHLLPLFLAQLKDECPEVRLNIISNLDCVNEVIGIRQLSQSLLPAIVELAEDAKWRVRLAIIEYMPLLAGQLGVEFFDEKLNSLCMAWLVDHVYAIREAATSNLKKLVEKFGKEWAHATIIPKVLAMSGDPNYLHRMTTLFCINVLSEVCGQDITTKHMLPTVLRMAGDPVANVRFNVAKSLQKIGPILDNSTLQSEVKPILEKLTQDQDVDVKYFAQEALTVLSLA
Method: The amount of inorganic phosphate released by enzymatic activity was determined by the addition of malachite green, and absorbance read at 590 nm. Malachite green forms a stable green complex in the presence of molybdate and orthophosphate, allowing the concentration of inorganic phosphate present to be measured. Data is presented as mean absorbance at 590 nm from at least three independent experiments, ±SEM.
1 mg of synthetic phosphopeptides K-R-pT-I-R-R (Upstate #12-219) and R-R-A-pS-V-A (Upstate #12-220) were dissolved in 1.10-1.285 ml of dH2O to prepare a 1 mM solution, then aliquoted and stored at −20° C. until use. 0.01-0.05 U of purified PP2A A-C dimer purified from human red blood cells, or 0.05 U of rabbit PP1 purified from skeletal muscle was mixed with 500 μM of phosphopeptide and incubated in the presence of various treatments as indicated at 37° C. on a heating block for 15 min. Each reaction was made up to a total volume of 25 μl with pNPP buffer (50 mM Tris-HCl, pH 7.0, 100 μM CaCl2). The enzyme reaction was terminated by adding 100 μl of malachite green solution (0.034% malachite green in 10 mM ammonium molybdate, 1 N HCl, 3.4% ethanol, 0.01% Tween-20). Malachite green forms a stable green complex in the presence of molybdate and orthophosphate, allowing the amount of inorganic phosphate present to be measured. Absorbance was read in duplicate for each sample at 590 nm.

[4] = molecular target: T3, PP2A catalytic subunit complexed with Akt (Homo sapiens, UniProt P67775); assay: Co-immunoprecipitation of PP2A catalytic subunit with Akt from PC3 cells; assay type: cell-based; conditions: 500 μM, 1.5 h, densitometry
T3 construct: Total Akt was immunoprecipitated from 400 μg of each whole cell lysate using a monoclonal anti-Akt antibody; endogenous in cells; host or cells: PC3 prostate carcinoma cells
T3 sequence (P67775 whole entry): as the sequence (P67775 whole entry) above
T3 sequence (P30153 2-589 partner limits assumed): as the sequence (P30153 2-589 partner limits assumed) above
Method: 1×10^6 PC3 prostate carcinoma cells were plated onto 6 cm dishes, allowed attach for 8 h, and then serum starved overnight. […] Total Akt was immunoprecipitated from 400 μg of each whole cell lysate using a monoclonal anti-Akt antibody, and captured with protein A-sepharose beads. […] Following washing to reduce non-specific binding, the beads were boiled for 5 min in 3× SDS protein loading buffer, centrifuged at high speed and the supernatant resolved by SDS-PAGE. The level of PP2A binding was determined by immunoblot analysis with an antibody that specifically recognizes the catalytic subunit of the phosphatase, and comparison made with the amount of Akt pulled down and the concentration of precipitating antibody (IgG). […] To quantify this increase in complex formation, representative immunoblots from three independent experiments were digitalized, subjected to densitometric analysis, and normalized to the control for each experiment. The mean ratio of PP2A catalytic subunit to total immunoprecipitated Akt protein ±SEM was then determined.
100-600 μg of whole cell lysate was incubated with various antibodies at a 1:100 dilution in microfuge tubes on a rotating wheel for 1-2 h at RT or 16 h at 4° C. as indicated. Following brief centrifugation, 30-40 μl of pre-washed 50% Protein-A Sepharose Fast Flow beads (Sigma #9424) was added to each tube and rotated at 4° C. for 1 h at RT or 4° C. […]

[5] = test system: TAU441 transgenic (Tg) TMHT mice
Description: This was done every Monday, Wednesday and Friday, and the water was weighed on exchange to measure consumption.

[6] = test system: p70S6K; assay type: cell-based, human; conditions: PC3 cells; LY294002 50 μM 1 hour, sodium selenate 500 μM 1 hour, okadaic acid 500 nM
Method: 5×10^5 PC3 prostate carcinoma cells were plated per well of a 6-well plate, allowed to attach for 8 hours, then serum starved overnight. […] Equal amounts of whole cell lysates (75 μg) were resolved by SDS-PAGE, and the level of p70S6K phosphorylation determined by immunoblot analysis with an antibody that specifically recognizes the p70S6K protein when phosphorylated on Thr389. Comparison is made with the protein loading control β tubulin.

T1 sequence (P67775 whole entry): as the sequence (P67775 whole entry) above
T1 sequence (P30153 2-589 partner limits assumed): as the sequence (P30153 2-589 partner limits assumed) above

## O=[Se](=O)(O)O [sodium selenate]
[1]; 5 mM of each selenium compound
  PP2A phosphatase activity, pNPP as substrate: clear boost in phosphatase activity
[1]; 0.05 U PP2A dimer, 30 min at 37° C., sodium selenate 5 mM, okadaic acid 500 nM
  PP2A phosphatase activity (pNPP): nearly tripled
[2]
  PHF Tau signal in brain lysate, clone AT100 (60 kDa): PHF Tau signal appeared to be reduced
  PHF Tau signal in brain lysate, clone AT180 (60 kDa): PHF Tau signal clearly reduced
[3]; 50 μM of each selenium compound
  PP2A phosphatase activity, serine phosphopeptide as substrate: clear boost in phosphatase activity
[3]; 0.01-0.05 U PP2A, 500 μM phosphopeptide, 15 min at 37° C., 50 μM sodium selenate
  inorganic phosphate released from phosphopeptide by PP2A: more than doubled
[4]
  increase in the binding of PP2A catalytic subunit to Akt protein: approximately 50%
[5]; 1.2 mg per 100 mL drinking water, 12 weeks
  Open Field activity parameters (activity, hyperactivity, rearing behaviour): uninfluenced
[5]; day 1
  finding the platform in the Morris Water Maze versus three months younger baseline group: faster
[5]; day 1, 2 and 3, p≦0.01
  finding the platform in the Morris Water Maze versus vehicle: faster
[5]; drinking water, 1.5 months after treatment start, versus vehicle, T-test p=0.019
  thigmotaxis: abidance in the centre of the Open Field box, turn 1: significant higher abidance in the centre of the Open Field box
[5]; drinking water, 12 weeks
  curiosity behaviour (Nose poke): remained unchanged
  motor performance (Rota Rod): remained unchanged
  negative side effects and premature deaths: did not lead to any negative side effects or caused any premature deaths
[5]; drinking water, end of treatment
  thigmotactic behaviour, turn 2: normalized to the level of the vehicle controls
[6]
  p70S6K phosphorylation on Thr389: unaffected
